This is an account of results in patent US20170182026A1, “Anti-Metastasis Treatment of Melanoma” (University Hospitals Cleveland Medical Center, priority 2015, published 2017).

One assay has as its system A375.52 cells. Description: Scratch assay, cell migration. The assay is classed as cell-based. The following applies: over 24 hours, FIG. 5C. As for the experimental part: (§1) FIG. 5A-C presents exemplary data showing combinatory effects of hydroxychloroquine (HCQ) and 1-octanol on melanoma cell viability and death. […] 4-methyl-heptanol (1 mM) as negative control.
(§2) The effect of a combined inhibition of GJIC and autophagy was assessed, making use of Promega Cell-Titer Glo and Trypan blue exclusion assay to assess cell viability and cell death, respectively (FIG. 5A and FIG. 5B). […] (FIG. 5C) Cell migration was measured as distance traveled from the edge of a wound and not as percent wound closure.

The test system of the next assay is connexins. As to the kind of experiment: Connexin protein levels after autophagy blockade. The assay is classed as cell-based. Conditions: A375.52 cells, treatment over 24 hours, FIG. 4B. As for the experimental part: FIGS. 4A&B presents exemplary data showing an assessment of connexin inhibition on autophagic flux and autophagic blockade on connexin protein levels. […] Tubulin as a loading control. H2O=water control, CBX=Carbenoxolone, Hep=1-Eleptanol, Oct=1-octanol, D=DMSO, HCQ=Hydroxychloroquine. Connexin protein levels were also assessed for possible modification of autophagic flux. For this purpose, hydroxychloroquine, a known autophagy inhibitor and clinically available medication was used. […] Specific autophagy inhibition may be assessed using shRNA (infra).

The test system of the next assay is connexins 26, 32, and 43. Conditions: reference [49]; cited from earlier work.
Another assay relates to Cx 36 and 50. The following applies: reference [49]; cited from earlier work.
For assay [1], the system named is autophagic flux. The following applies: pharmacologic blockage of GJIC, reference [21]; cited from earlier work.
The test system of assay [2] is autophagic flux. Description: Western blot of LC3 II/I ratio and p62 levels after connexin (GJIC) inhibitors. The following applies: A375.52 melanoma cells, treatment over 24 hours, FIG. 4A. The assay is classed as cell-based. From the text: FIGS. 4A&B presents exemplary data showing an assessment of connexin inhibition on autophagic flux and autophagic blockade on connexin protein levels. […] Tubulin as a loading control. H2O=water control, CBX=Carbenoxolone, Hep=1-Eleptanol, Oct=1-octanol, D=DMSO, HCQ=Hydroxychloroquine.
Connexin protein levels were examined within various melanoma cell lines, see FIG. 3. […] Connexins 43 and 26 has been studied previously in melanoma, and both also have shown relationships with autophagy. […] GJIC inhibition was explored, using three known connexin inhibitors, 1-octanol, 1-heptanol and carbenoxolone, the former of which is clinically available and is labeled as a food additive by the Food and Drug Administration, which is known to affect autophagic flux. GJIC inhibition was measured by changes noted in LC3 II/I ratios and p62 levels. (FIG. 4A).

Assay [3] concerns gap junction intercellular communication. As to the kind of experiment: Microinjection imaging assay, spread of reporter dye. The assay is classed as cell-based. The following applies: time-lapse microscopy, FIGS. 7A&B. From the text:
FIGS. 7A&B presents exemplary data Showing cell-cell communication in Glioblastoma Stem Cells (GSCs) cells with live imaging.
The functional status of overall connexin activity after autophagy inhibition will be addressed. […] To measure this, a microinjection imaging assay will be used. One cell is co-injected with a large fluorescent IgG that is unable to leave the parental cell along with a reporter dye that is capable of spreading to adjacent cells. Combining this with time-lapse microscopy, spread of the reporter dye (Lucifer yellow, 2NBDG-a fluorescent glucose analog) can be monitored, see FIGS. 7A&B. The spread of the dye is attenuated when using gap junction inhibitors, including carbenoxolone and 1-octanol. Utilization of multiple assessments of the gap junction intercellular communication, i.e. mRNA expression, protein levels and functional activity levels may pinpoint the particular modulation of GJIC that occurs with autophagic blockade in melanoma cells. […] Additionally, shRNA against shATG5, another key autophagy protein, could be utilized to determine if there were different effects.

In the next assay the test system is melanoma cell lines. As to the kind of experiment: Promega Cell-Titer Glo cell viability. It counts as cell-based. The following applies: two melanoma cell lines, 72 hours, FIG. 5A. As for the experimental part:
as §1, §2

Another assay relates to A375.52. Description: Trypan blue exclusion assay, cell death. It counts as cell-based. Conditions: A375.52, 72 hours, FIG. 5B. The method, then:
as §1, §2

Entries after “also recorded” stand apart in the source; their conditions may differ.

Take `CCN(CCO)CCCC(C)Nc1ccnc2cc(Cl)ccc12` (racemic) [hydroxychloroquine, (RS)-2-{{4-{(7-chloroquinolin-4-yl)amino}pentyl}(ethyl)amino}ethanol]: the “cell migration (distance traveled from the edge of a wound)” value in the assay on A375.52 cells was “no effect”. Besides, in the assay with connexins, the “levels of connexins 43 and 46” value is “opposite effects on levels of connexins 43 and 46”; the “protein levels of connexins” value was “affects the protein levels of specific connexins; also recorded: does affect protein levels of connexins, but not consistently”.
For the compound `OC(c1cc(C(F)(F)F)nc2c(C(F)(F)F)cccc12)C1CCCCN1` (stereo not drawn) [mefloquine], the “block of connexin activity” value is “would require much higher doses to affect” in the assay on connexins 26, 32, and 43; “block activity” in the assay with Cx 36 and 50.
As for `CC1(C)[C@@H](O)CC[C@]2(C)[C@H]3C(=O)C=C4[C@H]5C[C@@](C)(C(=O)O)CC[C@]5(C)CC[C@@]4(C)[C@]3(C)CC[C@@H]12` [18α glycyrrhetinic acid], the autophagic flux entry with autophagic flux [1] is “decreased autophagic flux”.
`CCCCCCCCO` [1-octanol]: in the assay on autophagic flux [2], the p62 levels result is “increased p62 levels” and the “total LC3 levels” value is recorded as “changes in total LC3 levels”. In addition, in assay [3], the “spread of the reporter dye (Lucifer yellow, 2NBDG)” value is on record as “attenuated”. The “cell migration (distance traveled from the edge of a wound)” value in the assay on A375.52 cells is given as “no effect”. Further, in the assay on melanoma cell lines, the cell viability result is “only small effects”. The cell death entry in the assay with A375.52 was “only small effects”.
As to `CC1(C)[C@@H](OC(=O)CCC(=O)O)CC[C@]2(C)[C@H]3C(=O)C=C4[C@@H]5C[C@@](C)(C(=O)O)CC[C@]5(C)CC[C@@]4(C)[C@]3(C)CC[C@@H]12` [carbenoxolone], in the assay with autophagic flux [2], the “LC3 II/I ratio” value is recorded as “without clear changes in LC3 II/I ratio” and the p62 levels result is “decreased p62 levels somewhat”. In assay [3], the “spread of the reporter dye (Lucifer yellow, 2NBDG)” value is listed as “attenuated”.
